Assay [1] deals with T1, PYL2 receptor-HAB1 protein phosphatase complex (Arabidopsis thaliana, UniProt O80992).
T1 construct: made in house; host or cells: E. coli BL21 (DE3)
T1 sequence (O80992 14-188): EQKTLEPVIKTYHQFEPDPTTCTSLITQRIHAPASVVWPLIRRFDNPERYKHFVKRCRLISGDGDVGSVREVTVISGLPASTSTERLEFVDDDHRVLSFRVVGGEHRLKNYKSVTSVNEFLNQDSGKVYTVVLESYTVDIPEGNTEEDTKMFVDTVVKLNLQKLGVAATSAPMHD
T1 sequence (Q9CAJ0 172-511 partner limits assumed): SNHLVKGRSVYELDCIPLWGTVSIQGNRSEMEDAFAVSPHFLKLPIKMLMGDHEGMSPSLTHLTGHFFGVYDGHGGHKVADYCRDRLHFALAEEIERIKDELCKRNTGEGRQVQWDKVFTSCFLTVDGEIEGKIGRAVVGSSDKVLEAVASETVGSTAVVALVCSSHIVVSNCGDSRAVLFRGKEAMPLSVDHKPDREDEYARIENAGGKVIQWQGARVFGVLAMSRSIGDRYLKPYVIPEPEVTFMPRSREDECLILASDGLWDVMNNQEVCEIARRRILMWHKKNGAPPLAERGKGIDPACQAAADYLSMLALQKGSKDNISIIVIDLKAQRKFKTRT
The assay can be described thus: AlphaScreen assay: promotion of PYL2 receptor binding to PP2C protein phosphatase HAB1. The following applies: 6×His-SUMO-tagged PYL2 (aa 14-188), Biotin-tagged HAB1 (aa 172-511), 100 nM each, pH 7.4, 1.5 h room temperature. From the text:
The construction method of recombinant plasmids for the Arabidopsis thaliana genes PYL1 (amino acid sequence 36-211), PYL2 (amino acid sequence 14-188) with dual tags of 6×His and SUMO sequence and the Arabidopsis thaliana gene HAB1 (amino acid sequence 172-511) with the Biotin tag sequence is described in detail in “A gate-latch-lock mechanism for hormone signaling by abscisic acid receptors” (Nature, Vol 462, 2009). The construction method of recombinant plasmids for PYR1 and PYL7 (whole gene coding sequence) and Soybean GmPYL6 and rice OsPYL2 with dual tags of 6×His and SUMO sequence is the same as that for Arabidopsis PYL2.
The above recombinant plasmid is transformed into competent cell of E. coli BL21 (DE3) (purchased from NEB company), and inoculated into 200 ml of LB liquid medium containing Amp resistance (purchased from OXOID company) and cultured overnight at 37° C. at 200 rpm; and inoculated into 2 L of LB liquid medium containing Amp resistance at a ratio of 1:50-1:100 for an extended culture, and cultured at 37° C., 200 rpm for 3-4 hours, and at a low temperature of 16° C. until OD600 is about 0.8-1.0. Recombinant plasmids for PYR1/PYL1/PYL2/PYL7/GmPYL6/OsPYL2 with dual tags of 6×His and SUMO sequence were induced overnight with 100 μM of IPTG while HAB1 recombinant plasmid with the Biotin tag sequence was induced simultaneously with 100 μM of IPTG and 40 μM of biotin.
After 16 hours of induction, the bacterial solution was centrifuged at 4000 rpm for 20 minutes at 4° C. in a low-speed high-capacity centrifuge, and the bacteria cells were collected. Bacteria cells were resuspended in 50 ml of extraction buffer (containing 20 mM Tris, pH 8.0, 200 mM NaCl and 10% (v/v) glycerol) for per 2 L of bacterial solution and then subjected to pressure-breaking at […] and 4° C. for 3-5 times. The broken cells were subjected to ultracentrifugation, centrifuged at 16000 rpm for 30 minutes, and this process was repeated twice. The supernatant was collected and subjected to an affinity chromatography column.
For PYR/PYL proteins with dual tags of 6×His and SUMO sequences, 50 ml of affinity chromatography Ni column (50 ml Ni-NTA column, available from GE) was used. Firstly, the column was equilibrated with 600 ml of 10% buffer B (containing 20 mM Tris, PH 8.0, 200 mM NaCl, 500 mM imidazole and 10% glycerol), and then eluted with 200 ml of 50% buffer B and finally eluted with 100 ml of 100% buffer B. Proteins for crystal analysis were mixed with ulp1 enzyme at a molar ratio of 1000:1 for enzymatic dialysis overnight. The digested proteins were subjected to affinity chromatography on a Ni column once more. The collected solution was subjected to a HiLoad 26/60 Superdex200 gel filtration column (commercially available from GE) and eluted with an elution solution (containing 25 mM Tris, pH 8.0, 200 mM ammonium acetate, 1 mM dithiotreitol and 1 mM EDTA) to further separate and purify the protein.
For a HAB1 protein with a Biotin tag sequence, it was subjected to a 50 ml MBP affinity column (available from GE). The column was firstly equilibrated with 600 ml of 10% buffer C (containing 20 mM Tris, pH 8.0, 200 mM NaCl, 10 mM Maltose and 10% Glycerol), and eluted with 200 ml of 50% buffer C and finally eluted with 100 ml of 100% buffer C. The collection solution was subjected to a HiLoad 26/60 Superdex200 gel filtration column and eluted with an elution solution (containing 20 mM Tris, pH 8.0, 200 mM NaCl and 10% Glycerol) to further separate and purify the protein. […]
For orientation: In Alpha technology, singlet oxygen from a donor bead excites a nearby acceptor bead.

The test system of another assay is Arabidopsis aba2-1. Briefly: Leaf transpiration experiment (leaf temperature by thermal imager), Arabidopsis. The following applies: for duration of the leaf temperature increase: FIG. 4a, 4c; for inhibitory effect on leaf transpiration compared with ABA: Arabidopsis aba2-1, spray. The class given is in vivo, Arabidopsis thaliana. As to the method: ABA synthesis mutant aba2-1 was used in Arabidopsis leaf transpiration experiment. […] Therefore, this mutant is used to exclude the effect of endogenous ABA on the transpiration experiment. The plants were sprayed with a solution containing 0.05% tween-20 and corresponding concentrations of (+)-ABA/0224/0304/0706/0715/0428 or 0.05% Tween-20 and 0.05% DMSO (control) after three weeks of continuous watering with an amount of 1.2 ml/pot. Leaf transpiration experiments of soybeans were conducted at 26° C. with long-day lighting and soybeans were sprayed with a solution containing 0.1% tween-20 and 20 μM (+)-ABA/0224/0304 compound or 0.1% Tween-20 and 0.05% DMSO (control) 14 days after sowing with an amount of 4 ml/pot; the leaf transpiration experiments of cottons were sprayed with a solution containing 0.1% tween-20 and 20 μM (+)-ABA/0224 compound or 0.1% Tween-20 and 0.05% DMSO, respectively, 25 days after sowing with an amount of 4 ml/pot; the leaf transpiration experiments of wheats were sprayed with a solution containing 0.1% tween-20 and 100 μM (+)-ABA/0224 compound or 0.1% Tween-20 and 0.05% DMSO (control) 18 days after sowing with an amount of 6 ml/pot. Images were taken daily using the FLIR A655sc thermal imager at the same time before and after spraying.
In this experiment, the temperature change of leaf surface was observed and recorded by an infrared camera, thus reflecting the strength of plant transpiration. The stronger the transpiration, the lower the leaf temperature.

[2] abbreviates: 5 μM spray, after spraying, FIG. 4a-4c.
Setting [3] is: 5 μM spray, four days after spraying.

Each structure is given as a SMILES string. “Also recorded” adds a separate entry of the source. Like-named read-outs stand apart in the source and are kept apart here.

Regarding `CCCN1C(=O)OCc2cc(NS(=O)(=O)Cc3c(F)c(F)c(C)c(F)c3F)ccc21` [Compound 0428], in assay [1] (FIG. 2f, read-out: EC50), the EC50 came out at 19.3 nM. Also, the “leaf temperature versus DMSO control (leaf transpiration)” value (“leaf temperature versus DMSO control” below) in the assay with Arabidopsis aba2-1 (5 μM/2 μM/1 μM, treated for one day, FIG. 4d) is listed as “significantly increased compared to that with DMSO treatment; also recorded: higher than that in the DMSO control group”.

For the compound `CC1=CC(=O)CC(C)(C)[C@@]1(O)/C=C/C(C)=C\C(=O)O` [ABA, Abscisic Acid, reference compound], the concentration giving a half-maximal response (EC50) in assay [1] (EC50, FIG. 2c) amounted to 866 nM; in assay [1] (EC50, FIG. 2e), 4960 nM; in assay [1] (EC50, FIG. 2f) it was 148 nM; in assay [1] (EC50, FIG. 2g) it was 3570 nM. For the same compound, the “leaf temperature versus DMSO control” value in the assay with Arabidopsis aba2-1 (setting [2]) is “significantly increased compared to that with control (DMSO) treatment; also recorded: the leaf temperature was higher than that in the DMSO control group”; in the assay with Arabidopsis aba2-1 (setting [3]) it was “had dropped to the level before spraying”.

On to `Cc1c(F)c(F)c(CS(=O)(=O)Nc2ccc3c(c2)C(C)OC(=O)N3CCCF)c(F)c1F` (stereo not shown) [Compound 0715], for which the EC50 in assay [1] (FIG. 2e, read-out: EC50) turned out to be 99.5 nM. Besides, in the assay with Arabidopsis aba2-1 (setting [2]), the “leaf temperature versus DMSO control” value was “significantly increased compared to that with control (DMSO) treatment; also recorded: significantly increased compared to the control (DMSO) treatment”. Also, the “duration of the leaf temperature increase” value in the assay on Arabidopsis aba2-1 (5 μM spray) is recorded as “equivalent to that of 0224”.

With `CCN1C(=O)OC(C)c2cc(NS(=O)(=O)Cc3c(F)c(F)c(C)c(F)c3F)ccc21` (stereo not shown) [Compound 0706], the EC50 in assay [1] (FIG. 2e, read-out: EC50) came to 101 nM. Besides, the “leaf temperature versus DMSO control” value in the assay on Arabidopsis aba2-1 (setting [2]) was “significantly increased compared to that with control (DMSO) treatment; also recorded: significantly increased compared to the control (DMSO) treatment”. Further, the “duration of the leaf temperature increase” value in the assay on Arabidopsis aba2-1 (5 μM spray) is “equivalent to that of 0224”.

Regarding `CCCN1C(=O)OC(C)c2cc(NS(=O)(=O)Cc3c(F)c(F)c(C)c(F)c3F)ccc21` (stereo not shown) [Compound 0224], the EC50 in assay [1] (FIG. 2c, read-out: EC50) was determined as 29.6 nM; in assay [1] (FIG. 2e, read-out: EC50) it was 92.1 nM. In addition, the “leaf temperature versus DMSO control” value with Arabidopsis aba2-1 (2 μM or 1 μM spray, four days after spraying, FIG. 4b) was “still significantly increased compared to that with control (DMSO) treatment; also recorded: still significantly higher than that in the DMSO control”; in the assay on Arabidopsis aba2-1 (setting [2]), “significantly increased compared to that with control (DMSO) treatment; also recorded: the leaf temperature was higher than that in the DMSO control group”; with Arabidopsis aba2-1 (setting [3]), “still significantly higher than that in the DMSO control”. Moreover, the “duration of the leaf temperature increase” value in the assay on Arabidopsis aba2-1 (5 μM spray) is “longer”. Moreover, the “inhibitory effect on leaf transpiration compared with ABA” value with Arabidopsis aba2-1 is “better than that of ABA”.

For the compound `CCCN1C(=O)OC(C)(C)c2cc(NS(=O)(=O)Cc3c(F)c(F)c(C)c(F)c3F)ccc21` [Compound 0304], in assay [1] (FIG. 2c, read-out: EC50), the EC50 amounted to 59.3 nM. The “leaf temperature versus DMSO control” value in the assay with Arabidopsis aba2-1 (setting [2]) is listed as “significantly increased compared to that with control (DMSO) treatment; also recorded: the leaf temperature was higher than that in the DMSO control group”; with Arabidopsis aba2-1 (setting [3]), “still significantly higher than that in the DMSO control”. Further, the “inhibitory effect on leaf transpiration compared with ABA” value in the assay with Arabidopsis aba2-1 is reported as “better than that of ABA”.

For orientation: EC50 means the concentration that produces a half-maximal response.
